# Assay results reported in US20260109707A1, “HETEROBIFUNCTIONAL COMPOUNDS AND METHODS OF TREATING DISEASE” (Halda Therapeutics OpCo. Inc., priority 2022, published 2026).
# Read-outs that look alike come from different tables or passages of the source.
# Legend:
# [1] = tested on: T-Rex 293 cell line SC3 cells having increased expression of androgen receptor protein due to exposure to doxycycline; assay: Cellular growth inhibition assay, T-Rex 293 SC3 cells with doxycycline (CellTiter-Glo, 72 hours); type: cell-based; conditions: T-Rex 293 SC3 cells with increased androgen receptor expression due to doxycycline (10 ng/mL)
# In short: (§1)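 Growth inhibition is measured in an inducible AR-expressing T-Rex 293 clone, SC3, cultured with or without 10 ng/mL doxycycline in hormone-depleted medium. Test compounds are applied for 72 hours. GI50 values derive from CellTiter-Glo 2.0 signal fitted by four-parameter regression.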
# VCaP cells = assay: Cellular growth inhibition assay for VCaP cells (CellTiter-Glo, 72 hours); type: cell-based, human
# In short: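 Luminescent viability signal after 72 h of compound exposure gave GI50 values by four-parameter nonlinear regression. Compounds were added in 0.5% DMSO to cells plated 24 h earlier at 5000/well in DMEM containing 10% FBS.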
# [2] = tested on: T-Rex 293 cell line SC3 cells lacking increased expression of androgen receptor protein; assay: Cellular growth inhibition assay, T-Rex 293 SC3 cells without doxycycline (CellTiter-Glo, 72 hours); type: cell-based; conditions: T-Rex 293 cell line SC3 cells not exposed to doxycycline (lacking increased androgen receptor expression)
# In short: as §1
SMILES,GI50 ([1]; 72 h),"GI50 (VCaP cells; Homo sapiens, VCaP, 72 h)",GI50 ([2]; 72 h),GI50 [1],GI50 (VCaP cells),GI50 [2]
Cc1sc2c(c1C)C(c1ccccc1OC1CC3(CCCN(c4ccc(C(=O)N[C@H]5CC[C@H](Oc6ccc(C#N)c(Cl)c6)CC5)nn4)C3)C1)=N[C@@H](C)c1nnc(C)n1-2 (stereo partly drawn) [I-716],> 3000 nM,> 3000 nM,> 3000 nM,,,
Cc1sc2c(c1C)C(c1ccc(NC[C@H]3CC[C@H](CNc4ncc(C(=O)N[C@H]5CC[C@H](Oc6ccc(C#N)c(Cl)c6)CC5)cn4)CC3)cc1)=NC(Cc1ncco1)c1nnc(C)n1-2 (stereo partly drawn) [I-807],< 500 nM,< 500 nM,< 500 nM,,,
Cc1sc2c(c1C)C(c1ccc(C3CCC4(CC3)CCN(c3ccc(C(=O)N[C@H]5CC[C@H](Oc6ccc(C#N)c(Cl)c6)CC5)nn3)C4)cc1)=NC1(CC1)c1nnc(C)n1-2 (stereo partly drawn) [I-518],,,,< 500 nM,< 500 nM,> 3000 nM
C#Cc1ccc(O[C@H]2CC[C@H](NC(=O)c3ccc(N4CCC(C5CN(c6ccc(C7=NC8(CC8)c8nnc(C)n8-c8sc(C)c(C)c87)nc6)C5)CC4)nn3)CC2)cc1Cl [I-516],< 500 nM,> 3000 nM,> 3000 nM,,,
Cc1sc2c(c1C)C(c1ccc(C#CC3CC4(C3)CN(c3ccc(C(=O)N[C@H]5CC[C@H](Oc6ccc(C#N)c(Cl)c6)CC5)nn3)C4)cn1)=NC(C)c1nnc(C)n1-2 (stereo partly drawn) [I-457],< 500 nM,< 500 nM,> 3000 nM,,,
Cc1sc2c(c1C)C(c1ccc(COC3CCC4(CCCN(c5ccc(C(=O)N[C@H]6CC[C@H](Oc7ccc(C#N)c(Cl)c7)CC6)nn5)C4)C3)cc1)=NC1(CC1)c1nnc(C)n1-2 (stereo partly drawn) [I-493],< 500 nM,,,,> 3000 nM,500 to 1500 nM
"COCC[C@@H]1N=C(c2ccc(C3CCC4(CC3)CCN(c3ccc(C(=O)N[C@H]5CC[C@H](Oc6ccc(C#N)c(Cl)c6)CC5)nn3)C4)cc2)c2c(sc(C)c2C)-n2c(C)nnc21 (single isomer, unassigned) [I-619]",,,,< 500 nM,< 500 nM,> 3000 nM
Cc1sc2c(c1C)C(c1ccc(C#CC3CC(Cc4ccc(C(=O)N[C@H]5CC[C@H](Oc6ccc(C#N)c(Cl)c6)CC5)nn4)C3)cc1)=N[C@@H](Cc1ncco1)c1nnc(C)n1-2 (stereo partly drawn) [I-645],< 500 nM,< 500 nM,,,,> 3000 nM
Cc1sc2c(c1C)C(c1ccc(N3C[C@@]4(C)CN(c5ccc(C(=O)N[C@H]6CC[C@H](Oc7ccc(C#N)c(Cl)c7)CC6)nn5)C[C@@]4(C)C3)cc1)=N[C@@H](C)c1nnc(C)n1-2 [I-704],< 500 nM,500 to 1500 nM,> 3000 nM,,,
Cc1sc2c(c1C)C(c1cccc(OC3CC4(CCCN(c5ccc(C(=O)N[C@H]6CC[C@H](Oc7ccc(C#N)c(Cl)c7)CC6)nn5)C4)C3)c1)=N[C@@H](C)c1nnc(C)n1-2 (stereo partly drawn) [I-715],,,,< 500 nM,< 500 nM,500 to 1500 nM
COCC1N=C(c2ccc(C#CC3CC4(C3)CN(c3ccc(C(=O)N[C@H]5CC[C@H](Oc6ccc(C#N)c(Cl)c6)CC5)nn3)C4)cc2)c2c(sc(C)c2C)-n2c(C)nnc21 (stereo partly drawn) [I-570],< 500 nM,< 500 nM,,,,> 3000 nM
Cc1sc2c(c1C)C(c1ccc(C3CCC4(CC3)CCN(c3ccc(C(=O)N[C@H]5CC[C@H](Oc6ccc(C#N)c(Cl)c6)CC5)nn3)C4)nc1)=NC1(CC1)c1nnc(C)n1-2 (stereo partly drawn) [I-608],,,,< 500 nM,< 500 nM,500 to 1500 nM
Cc1sc2c(c1C)C(c1ccc(CCC3CC4(CCCN(c5ccc(C(=O)N[C@H]6CC[C@H](Oc7ccc(C#N)c(Cl)c7)CC6)nn5)C4)C3)cc1)=NCc1nnc(C)n1-2 (stereo partly drawn) [I-548],< 500 nM,1500 to 3000 nM,< 500 nM,,,
Cc1sc2c(c1C)C(c1ccccc1CC1CC3(CCN(c4ccc(C(=O)NC5CCC(Oc6ccc(C#N)c(Cl)c6)CC5)nn4)CC3)C1)=N[C@@H](C)c1nnc(C)n1-2 (stereo partly drawn) [I-690],> 3000 nM,< 500 nM,> 3000 nM,,,
Cc1sc2c(c1C)C(c1ccc(C3CCC4(CCN(c5ccc(C(=O)N[C@H]6CC[C@H](Oc7ccc(C#N)c(Cl)c7)CC6)nn5)CC4)C3)nc1)=N[C@@H](C)c1nnc(C)n1-2 (stereo partly drawn) [I-575],,,< 500 nM,< 500 nM,> 3000 nM,
Cc1sc2c(c1C)C(c1cccc(OC3CCC4(CCN(c5ccc(C(=O)N[C@H]6CC[C@H](Oc7ccc(C#N)c(Cl)c7)CC6)nn5)C4)C3)c1)=N[C@@H](C)c1nnc(C)n1-2 (stereo partly drawn) [I-749],,,,< 500 nM,< 500 nM,500 to 1500 nM
Cc1sc2c(c1C)C(c1ccc(CCN3[C@H](C)CN(c4ccc(C(=O)N[C@H]5CC[C@H](Oc6ccc(C#N)c(Cl)c6)CC5)nn4)C[C@@H]3C)cc1)=N[C@@H](Cc1ncco1)c1nnc(C)n1-2 [I-466],< 500 nM,< 500 nM,< 500 nM,,,
COC[C@@H]1N=C(c2ccc(C3CCC4(CCN(c5ccc(C(=O)N[C@H]6CC[C@H](Oc7ccc(C#N)c(Cl)c7)CC6)nn5)CC4)C3)cc2)c2c(sc(C)c2C)-n2c(C)nnc21 (stereo partly drawn) [I-659],,,,< 500 nM,< 500 nM,< 500 nM

SMILES,GI50 ([1]; 72 h),"GI50 (VCaP cells; Homo sapiens, VCaP, 72 h)",GI50 ([2]; 72 h),GI50 [1],GI50 (VCaP cells),GI50 [2]
COCC[C@@H]1N=C(c2ccc(N3CCC4(CC3)CCN(c3ccc(C(=O)N[C@H]5CC[C@H](Oc6ccc(C#N)c(Cl)c6)CC5)nn3)C4)cc2)c2c(sc(C)c2C)-n2c(C)nnc21 [I-567],< 500 nM,< 500 nM,< 500 nM,,,
Cc1sc2c(c1C)C(c1ccc(C3CCC4(CCN(c5ccc(C(=O)N[C@H]6CC[C@H](Oc7ccc(C#N)c(Cl)c7)CC6)nn5)CC4)C3)nc1)=NC1(CC1)c1nnc(C)n1-2 (stereo partly drawn) [I-738],,,,< 500 nM,< 500 nM,> 3000 nM
Cc1sc2c(c1C)C(c1ccc(C#CC3CC(Cc4ccc(C(=O)N[C@H]5CC[C@H](Oc6ccc(C#N)c(Cl)c6)CC5)nn4)C3)cc1)=N[C@@H](Cc1ncco1)c1nnc(C)n1-2 (stereo partly drawn) [I-646],,,,< 500 nM,< 500 nM,< 500 nM
Cc1sc2c(c1C)C(c1ccccc1OCCC1CCN(c3ccc(C(=O)N[C@H]4CC[C@H](Oc5ccc(C#N)c(Cl)c5)CC4)nn3)CC1)=N[C@@H](C)c1nnc(C)n1-2 [I-689],> 3000 nM,> 3000 nM,> 3000 nM,,,
Cc1sc2c(c1C)C(c1ccc(N3CC(C4CCN(c5ccc(C(=O)N[C@H]6CC[C@H](Oc7ccc(C#N)c(Cl)c7)CC6)nn5)CC4)C3)cn1)=N[C@@H](C)c1nnc(C)n1-2 [I-464],< 500 nM,< 500 nM,> 3000 nM,,,
Cc1sc2c(c1C)C(c1ccc(N3CCC4(CCCN(c5ccc(C(=O)N[C@H]6CC[C@H](Oc7ccc(C#N)c(Cl)c7)CC6)nn5)C4)CC3)nc1)=NCc1nnc(C)n1-2 [I-476],< 500 nM,< 500 nM,> 3000 nM,,,
CCNC(=O)C[C@@H]1N=C(c2ccc(N3CC(OC4CN(c5ccc(C(=O)N[C@H]6CC[C@H](Oc7ccc(C#N)c(Cl)c7)CC6)nn5)C4)C3)cc2)c2c(sc(C)c2C)-n2c(C)nnc21 [I-70],< 500 nM,< 500 nM,500 to 1500 nM,,,
CC[C@@H]1N=C(c2ccc(N3CCC4(CCCN(c5ccc(C(=O)N[C@H]6CC[C@H](Oc7ccc(C#N)c(Cl)c7)CC6)nn5)C4)CC3)cc2)c2c(sc(C)c2C)-n2c(C)nnc21 [I-510],< 500 nM,> 3000 nM,< 500 nM,,,
Cc1sc2c(c1C)C(c1cccc(N3CCC4(CC3)CCN(c3ccc(C(=O)N[C@H]5CC[C@H](Oc6ccc(C#N)c(Cl)c6)CC5)nn3)C4)c1)=N[C@@H](C)c1nnc(C)n1-2 [I-685],< 500 nM,< 500 nM,500 to 1500 nM,,,
Cc1sc2c(c1C)C(c1ccc(N[C@@H]3CCC[C@H](Nc4ncc(C(=O)N[C@H]5CC[C@H](Oc6ccc(C#N)c(Cl)c6)CC5)cn4)C3)cc1)=NC(Cc1ncco1)c1nnc(C)n1-2 (stereo partly drawn) [I-801],< 500 nM,< 500 nM,< 500 nM,,,
COC[C@@H]1N=C(c2ccc(C3CCC4(CCCN(c5ccc(C(=O)N[C@H]6CC[C@H](Oc7ccc(C#N)c(Cl)c7)CC6)nn5)C4)CC3)cc2)c2c(sc(C)c2C)-n2c(C)nnc21 (stereo partly drawn) [I-654],< 500 nM,< 500 nM,,,,> 3000 nM
Cc1sc2c(c1C)C(c1ccc(CC3CCC4(C3)CN(c3ccc(C(=O)N[C@H]5CC[C@H](Oc6ccc(C#N)c(Cl)c6)CC5)nn3)CCO4)cc1)=N[C@@H](C)c1nnc(C)n1-2 (stereo partly drawn) [I-578],< 500 nM,,,,500 to 1500 nM,> 3000 nM
Cc1sc2c(c1C)C(c1ccc(CC3CC4(CCCN(c5ccc(C(=O)N[C@H]6CC[C@H](Oc7ccc(C#N)c(Cl)c7)CC6)nn5)C4)C3)cn1)=NC(Cc1ncco1)c1nnc(C)n1-2 (stereo partly drawn) [I-771],,,,< 500 nM,< 500 nM,< 500 nM
Cc1sc2c(c1C)C(c1ccc(Cl)cc1)=N[C@@H](CC(=O)NCCCCCOC1CCN(c3ccc(C(=O)N[C@H]4CC[C@H](Oc5ccc(C#N)c(Cl)c5)CC4)nn3)CC1)c1nnc(C)n1-2 [I-5],< 500 nM,< 500 nM,< 500 nM,,,
Cc1sc2c(c1C)C(c1ccc(N3CCC4(CCCN(c5ccc(C(=O)N[C@H]6CC[C@H](Oc7ccc(C#N)c(Cl)c7)CC6)nn5)C4)CC3)cc1)=NC(C(F)(F)F)c1nnc(C)n1-2 (stereo partly drawn) [I-721],,,> 3000 nM,< 500 nM,< 500 nM,
Cc1sc2c(c1C)C(c1ccc(N3CCC4CN(c5ccc(C(=O)N[C@H]6CC[C@H](Oc7ccc(C#N)c(Cl)c7)CC6)nn5)CCC4C3)cc1)=N[C@@H](C)c1nnc(C)n1-2 (stereo partly drawn) [I-620],,,,< 500 nM,< 500 nM,< 500 nM
Cc1sc2c(c1C)C(c1ccc(C/C=C/C3CN(c4ccc(C(=O)N[C@H]5CC[C@H](Oc6ccc(C#N)c(Cl)c6)CC5)nn4)C3)cc1)=N[C@@H](Cc1ncco1)c1nnc(C)n1-2 [I-678],< 500 nM,> 3000 nM,> 3000 nM,,,
